Source: PubChem BioAssay AID248 (DTP/NCI, 2004)
Values joined by “and” are separate entries in the source; they are usually repeats but may differ in a detail not shown here. Identical values can stand only once. Toxic doses and inconclusive results are not listed.

System: L1210 leukemia ip in BDF1 mice, survival T/C
Assay: NCI In Vivo Anticancer Drug Screen. Data for tumor model L1210 Leukemia (intraperitoneal) in B6D2F1 (BDF1) mice
Conditions: endpoint: mean survival time, higher = longer survival
Outline: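 Value reflects the ratio of survival in compound-treated mice to survival in vehicle-treated controls, with both groups carrying the same transplanted tumor.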

[1] = dose: 100.0 mg/kg/injection, schedule: Q04DX003 (ip), vehicle: saline with Tween-80
[2] = dose: 200.0 mg/kg/injection, schedule: Q04DX003 (ip), vehicle: saline with Tween-80
[3] = dose: 100.0 mg/kg/injection, schedule: Q04DX003 (ip), vehicle: saline
[4] = dose: 200.0 mg/kg/injection, schedule: Q04DX003 (ip), vehicle: saline
[5] = dose: 400.0 mg/kg/injection, schedule: Q04DX003 (ip), vehicle: saline

C/C(=C\C(C)(C)c1ccccc1)c1ccccc1
T/C (dose: 50.0 mg/kg/injection, schedule: Q04DX003 (ip), vehicle: other): 92 % of control
T/C (dose: 100.0 mg/kg/injection, schedule: Q04DX003 (ip), vehicle: other): 92 % of control
T/C (dose: 200.0 mg/kg/injection, schedule: Q04DX003 (ip), vehicle: other): 100 % of control

O=CC(Cl)Cl
T/C (dose: 100.0 mg/kg/injection, schedule: Q01DX009 (ip), vehicle: saline): 92 % of control
T/C (dose: 200.0 mg/kg/injection, schedule: Q01DX009 (ip), vehicle: saline): 110 % of control
T/C (dose: 400.0 mg/kg/injection, schedule: Q01DX009 (ip), vehicle: saline): 108 % of control

CCCCCCCCN(C=O)CCCCCCCC
T/C (dose: 100.0 mg/kg/injection, schedule: Q04DX002 (ip), vehicle: saline with Tween-80): 98 % of control

NC(=O)C1CCNCC1
T/C (dose: 100.0 mg/kg/injection, schedule: Q04DX002 (ip), vehicle: saline): 108 % of control
T/C (dose: 200.0 mg/kg/injection, schedule: Q04DX002 (ip), vehicle: saline): 102 % of control
T/C (dose: 400.0 mg/kg/injection, schedule: Q04DX002 (ip), vehicle: saline): 115 % of control

O=[N+]([O-])c1cc(F)ccc1O
T/C (dose: 100.0 mg/kg/injection, schedule: Q01DX009 (ip), vehicle: Klucel (hydroxypropylcellulose) (HPC)): 94 % of control
T/C (dose: 100.0 mg/kg/injection, schedule: Q04DX003 (ip), vehicle: Klucel (hydroxypropylcellulose) (HPC)): 101 % of control
T/C [1]: 97 % of control
T/C [2]: 106 % of control

CC1CN1CC(O)C(O)CN1CC1C (stereo not given)
T/C (dose: 0.07 mg/kg/injection, schedule: Q01DX Z (ip), vehicle: saline): 101 % of control
T/C (dose: 0.07 mg/kg/injection, schedule: Q01DX Z (ip), vehicle: water): 108 % of control
T/C (dose: 0.1 mg/kg/injection, schedule: Q01DX Z (ip), vehicle: saline): 106 % of control
T/C (dose: 0.1 mg/kg/injection, schedule: Q01DX Z (ip), vehicle: water): 110 % of control
T/C (dose: 0.15 mg/kg/injection, schedule: Q01DX Z (ip), vehicle: saline): 106 % of control and 110 % of control
T/C (dose: 0.15 mg/kg/injection, schedule: Q01DX Z (ip), vehicle: water): 118 % of control
T/C (dose: 0.22 mg/kg/injection, schedule: Q01DX Z (ip), vehicle: saline): 104 % of control and 114 % of control
T/C (dose: 0.22 mg/kg/injection, schedule: Q01DX Z (ip), vehicle: water): 124 % of control
T/C (dose: 0.26 mg/kg/injection, schedule: Q01DX009 (ip), vehicle: saline): 160 % of control
T/C (dose: 0.26 mg/kg/injection, schedule: Q04DX003 (ip), vehicle: saline): 117 % of control
T/C (dose: 0.31 mg/kg/injection, schedule: Q01DX001 (ip), vehicle: carboxymethylcellulose (CMC)): 105 % of control
T/C (dose: 0.33 mg/kg/injection, schedule: Q01DX015 (ip), vehicle: saline): 165 % of control
T/C (dose: 0.33 mg/kg/injection, schedule: Q01DX Z (ip), vehicle: saline): 121 % of control
T/C (dose: 0.4 mg/kg/injection, schedule: Q01DX009 (ip), vehicle: saline): 152 % of control
T/C (dose: 0.5 mg/kg/injection, schedule: Q01DX001 (ip), vehicle: saline): 108 % of control
T/C (dose: 0.5 mg/kg/injection, schedule: Q01DX015 (ip), vehicle: saline): 117 % of control
T/C (dose: 0.6 mg/kg/injection, schedule: Q01DX015 (ip), vehicle: saline): 163 % of control
T/C (dose: 0.62 mg/kg/injection, schedule: Q01DX001 (ip), vehicle: carboxymethylcellulose (CMC)): 121 % of control
T/C (dose: 1.0 mg/kg/injection, schedule: Q01DX001 (ip), vehicle: saline): 113 % of control
T/C (dose: 1.0 mg/kg/injection, schedule: Q01DX015 (ip), vehicle: saline): 153 % of control and 207 % of control
T/C (dose: 1.25 mg/kg/injection, schedule: Q01DX001 (ip), vehicle: carboxymethylcellulose (CMC)): 121 % of control
T/C (dose: 1.4 mg/kg/injection, schedule: Q04DX003 (ip), vehicle: saline): 153 % of control
T/C (dose: 1.8 mg/kg/injection, schedule: Q01DX015 (ip), vehicle: saline): 97 % of control and 116 % of control
T/C (dose: 2.0 mg/kg/injection, schedule: Q01DX015 (ip), vehicle: saline): 207 % of control and 221 % of control
T/C (dose: 2.1 mg/kg/injection, schedule: Q04DX003 (ip), vehicle: saline): 166 % of control
T/C (dose: 2.5 mg/kg/injection, schedule: Q01DX001 (ip), vehicle: carboxymethylcellulose (CMC)): 150 % of control
T/C (dose: 2.5 mg/kg/injection, schedule: Q01DX001 (ip), vehicle: saline): 152 % of control
T/C (dose: 3.0 mg/kg/injection, schedule: Q01DX001 (ip), vehicle: saline): 102 % of control
T/C (dose: 3.0 mg/kg/injection, schedule: Q01DX015 (ip), vehicle: saline): 261 % of control
T/C (dose: 3.3 mg/kg/injection, schedule: Q04DX003 (ip), vehicle: saline): 160 % of control
T/C (dose: 4.0 mg/kg/injection, schedule: Q01DX001 (ip), vehicle: saline): 157 % of control
T/C (dose: 4.0 mg/kg/injection, schedule: Q01DX015 (ip), vehicle: saline): 166 % of control
T/C (dose: 5.0 mg/kg/injection, schedule: Q01DX001 (ip), vehicle: carboxymethylcellulose (CMC)): 152 % of control
T/C (dose: 5.0 mg/kg/injection, schedule: Q01DX001 (ip), vehicle: saline): 158 % of control
T/C (dose: 5.5 mg/kg/injection, schedule: Q01DX001 (ip), vehicle: saline): 157 % of control
T/C (dose: 7.5 mg/kg/injection, schedule: Q04DX003 (ip), vehicle: saline): 95 % of control and 257 % of control
T/C (dose: 8.0 mg/kg/injection, schedule: Q01DX015 (ip), vehicle: saline): 122 % of control and 86 % of control and 87 % of control
T/C (dose: 10.0 mg/kg/injection, schedule: Q01DX001 (ip), vehicle: carboxymethylcellulose (CMC)): 236 % of control
T/C (dose: 10.0 mg/kg/injection, schedule: Q01DX001 (ip), vehicle: saline): 210 % of control
T/C (dose: 11.0 mg/kg/injection, schedule: Q01DX001 (ip), vehicle: saline): 247 % of control and 108 % of control and 116 % of control
T/C (dose: 15.0 mg/kg/injection, schedule: Q01DX001 (ip), vehicle: saline): 250 % of control
T/C (dose: 20.0 mg/kg/injection, schedule: Q01DX001 (ip), vehicle: saline): 91 % of control
T/C (dose: 22.0 mg/kg/injection, schedule: Q01DX001 (ip), vehicle: saline): 168 % of control
T/C (dose: 25.0 mg/kg/injection, schedule: Q01DX001 (ip), vehicle: saline): 120 % of control
T/C (dose: 30.0 mg/kg/injection, schedule: Q01DX001 (ip), vehicle: saline): 87 % of control
T/C (dose: 41.0 micrograms/kg/injection, schedule: Q01DX015 (ip), vehicle: saline): 104 % of control
T/C (dose: 50.0 micrograms/kg/injection, schedule: Q01DX009 (ip), vehicle: saline): 101 % of control
T/C (dose: 62.0 micrograms/kg/injection, schedule: Q01DX015 (ip), vehicle: saline): 108 % of control
T/C (dose: 75.0 micrograms/kg/injection, schedule: Q01DX009 (ip), vehicle: saline): 104 % of control
T/C (dose: 113.0 micrograms/kg/injection, schedule: Q01DX009 (ip), vehicle: saline): 110 % of control
T/C (dose: 140.0 micrograms/kg/injection, schedule: Q01DX001 (ip), vehicle: saline): 113 % of control
T/C (dose: 210.0 micrograms/kg/injection, schedule: Q01DX001 (ip), vehicle: saline): 120 % of control

O=S(=O)(c1ccccc1)C1CC1c1ccccc1 (stereo not given)
T/C (dose: 50.0 mg/kg/injection, schedule: Q01DX009 (ip), vehicle: acetone): 95 % of control
T/C (dose: 100.0 mg/kg/injection, schedule: Q01DX001 (ip), vehicle: saline): 94 % of control
T/C (dose: 100.0 mg/kg/injection, schedule: Q01DX009 (ip), vehicle: acetone): 93 % of control
T/C [3]: 98 % of control
T/C (dose: 200.0 mg/kg/injection, schedule: Q01DX001 (ip), vehicle: saline): 102 % of control
T/C (dose: 200.0 mg/kg/injection, schedule: Q01DX009 (ip), vehicle: acetone): 97 % of control
T/C [4]: 96 % of control
T/C (dose: 400.0 mg/kg/injection, schedule: Q01DX001 (ip), vehicle: saline): 102 % of control
T/C [5]: 98 % of control

C=C(Cl)CSCCO
T/C [1]: 92 % of control
T/C [2]: 97 % of control
T/C (dose: 400.0 mg/kg/injection, schedule: Q04DX003 (ip), vehicle: saline with Tween-80): 97 % of control

O=C(O)CCCC1CCC(=O)CC1
T/C [3]: 109 % of control
T/C [4]: 96 % of control
T/C [5]: 100 % of control

CC(C)=CCc1cc(OC(=O)OCc2ccccc2)c2ccccc2c1O
T/C (dose: 100.0 mg/kg/injection, schedule: Q01DX001 (ip), vehicle: Klucel (hydroxypropylcellulose) (HPC)): 96 % of control
T/C (dose: 200.0 mg/kg/injection, schedule: Q01DX001 (ip), vehicle: Klucel (hydroxypropylcellulose) (HPC)): 93 % of control
T/C (dose: 400.0 mg/kg/injection, schedule: Q01DX001 (ip), vehicle: Klucel (hydroxypropylcellulose) (HPC)): 101 % of control

CCOc1ccc(/C=N/Nc2nnc(N/N=C/c3ccc(OCC)c(OCC)c3)c3ccccc23)cc1OCC
T/C (dose: 50.0 mg/kg/injection, schedule: Q01DX001 (ip), vehicle: carboxymethylcellulose (CMC)): 95 % of control
